Assay results published in ChEMBL document CHEMBL1156730, “Structure-activity relationships of new inhibitors of breast cancer resistance protein (ABCG2)” (Bioorg Med Chem, 2008).

How the values were obtained:
Assay type in all cases: cell-based; call rule not given here
[1] = biological target: T1, Broad substrate specificity ATP-binding cassette transporter ABCG2 (Homo sapiens, UniProt Q9UNQ0); assay: Inhibition of ABCG2 in human mitoxantrone-resistant MCF7 cells by Hoechst 33342 assay
T1 sequence (Q9UNQ0 whole entry): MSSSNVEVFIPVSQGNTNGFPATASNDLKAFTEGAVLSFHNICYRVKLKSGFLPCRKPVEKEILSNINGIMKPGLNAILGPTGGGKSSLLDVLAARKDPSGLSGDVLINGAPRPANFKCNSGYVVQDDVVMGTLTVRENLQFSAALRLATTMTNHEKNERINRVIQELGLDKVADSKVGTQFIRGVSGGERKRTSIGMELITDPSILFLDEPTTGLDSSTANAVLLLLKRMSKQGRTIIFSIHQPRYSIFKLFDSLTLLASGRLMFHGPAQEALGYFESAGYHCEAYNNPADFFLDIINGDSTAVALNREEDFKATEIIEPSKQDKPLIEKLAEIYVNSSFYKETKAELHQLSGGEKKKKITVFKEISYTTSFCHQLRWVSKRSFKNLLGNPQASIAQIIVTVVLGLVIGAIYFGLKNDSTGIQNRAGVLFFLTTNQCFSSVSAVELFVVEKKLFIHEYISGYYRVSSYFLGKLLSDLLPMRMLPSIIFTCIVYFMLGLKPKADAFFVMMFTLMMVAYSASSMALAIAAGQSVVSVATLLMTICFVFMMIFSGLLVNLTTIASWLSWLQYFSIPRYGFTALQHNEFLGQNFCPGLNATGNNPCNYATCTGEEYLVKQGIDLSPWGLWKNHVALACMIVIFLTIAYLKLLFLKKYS

[2] = biological target: ATP-dependent translocase ABCB1 (Homo sapiens, UniProt P08183); assay: Inhibition of P-gp in human adriamycin-resistant A2780 cells by Hoechst 33342 assay
[3] = biological target: T1, Broad substrate specificity ATP-binding cassette transporter ABCG2; assay: Inhibition of ABCG2 in human mitoxantrone-resistant MCF7 cells by Hoechst 33342 assay using linear regression analysis
[4] = biological target: T1, Broad substrate specificity ATP-binding cassette transporter ABCG2; assay: Inhibition of ABCG2 in human mitoxantrone-resistant MCF7 cells at 5.6 uM by Hoechst 33342 assay; settings: mcf7, 5.6 µM
[5] = biological target: T1, Broad substrate specificity ATP-binding cassette transporter ABCG2; assay: Inhibition of ABCG2 in human mitoxantrone-resistant MCF7 cells by Hoechst 33342 assay using one phase exponential association analysis

Chain of ATP-dependent translocase ABCB1 (P08183 whole entry): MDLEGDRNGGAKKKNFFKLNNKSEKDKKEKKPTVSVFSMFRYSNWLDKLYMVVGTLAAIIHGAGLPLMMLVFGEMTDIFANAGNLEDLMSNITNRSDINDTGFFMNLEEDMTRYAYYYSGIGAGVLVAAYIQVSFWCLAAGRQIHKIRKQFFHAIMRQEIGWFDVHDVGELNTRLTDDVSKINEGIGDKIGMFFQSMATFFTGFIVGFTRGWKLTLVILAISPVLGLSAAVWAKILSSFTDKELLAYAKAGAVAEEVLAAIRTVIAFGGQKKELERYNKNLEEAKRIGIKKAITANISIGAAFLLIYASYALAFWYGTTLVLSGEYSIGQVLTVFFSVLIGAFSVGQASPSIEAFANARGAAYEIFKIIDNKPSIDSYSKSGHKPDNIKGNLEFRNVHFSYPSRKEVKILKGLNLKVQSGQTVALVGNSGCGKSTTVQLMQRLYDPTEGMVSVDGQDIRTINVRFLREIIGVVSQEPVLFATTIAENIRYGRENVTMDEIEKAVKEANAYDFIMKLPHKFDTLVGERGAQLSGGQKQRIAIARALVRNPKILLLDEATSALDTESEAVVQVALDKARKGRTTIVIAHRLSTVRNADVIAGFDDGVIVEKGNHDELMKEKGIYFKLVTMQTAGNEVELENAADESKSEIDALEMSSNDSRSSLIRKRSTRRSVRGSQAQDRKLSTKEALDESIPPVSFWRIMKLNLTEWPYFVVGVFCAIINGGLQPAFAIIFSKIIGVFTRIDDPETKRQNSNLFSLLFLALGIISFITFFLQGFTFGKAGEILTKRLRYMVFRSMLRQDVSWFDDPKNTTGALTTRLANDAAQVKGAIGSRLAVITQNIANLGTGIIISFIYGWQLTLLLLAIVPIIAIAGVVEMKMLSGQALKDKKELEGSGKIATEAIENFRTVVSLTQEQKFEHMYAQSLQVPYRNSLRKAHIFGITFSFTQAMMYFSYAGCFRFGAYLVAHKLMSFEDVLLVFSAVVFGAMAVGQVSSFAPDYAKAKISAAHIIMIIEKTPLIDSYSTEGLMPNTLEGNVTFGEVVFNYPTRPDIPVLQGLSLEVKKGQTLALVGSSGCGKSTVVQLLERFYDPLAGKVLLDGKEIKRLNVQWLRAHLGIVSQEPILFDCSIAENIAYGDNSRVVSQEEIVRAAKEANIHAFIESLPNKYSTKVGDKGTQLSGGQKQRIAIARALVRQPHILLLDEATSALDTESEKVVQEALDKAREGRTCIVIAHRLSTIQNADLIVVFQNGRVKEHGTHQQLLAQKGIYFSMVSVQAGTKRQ

Structure (SMILES)	IC50 [1] [µM]	other results
COc1ccc(C(=O)Nc2ccccc2C(=O)Nc2ccc(CCN3CCc4cc(OC)c(OC)cc4C3)cc2)cc1OC	2.09	–
O=C(Nc1ccc(CCN2CCc3ccccc3C2)cc1)c1ccccc1[N+](=O)[O-]	79.4	–
COc1cc2c(cc1OC)CN(CCc1ccc(NC(=O)c3cc(OC)c(OC)cc3[N+](=O)[O-])cc1)CC2	64.6	–
COc1cc2c(cc1OC)CN(CCc1ccc(NC(=O)c3ccnc4ccccc34)cc1)CC2	36.3	–
COc1cc2c(cc1OC)CN(CCc1ccc(NC(=O)c3cnc4ccccc4n3)cc1)CC2	6.03	–
COc1cc2c(cc1OC)CN(CCc1ccc(NC(=O)c3ccccc3NC(=O)c3ccc(C)cc3)cc1)CC2	3.89	–
COc1cc2c(cc1OC)CN(CCc1ccc(NC(=O)c3cnc4ccccc4c3)cc1)CC2	24	–
Nc1ccccc1C(=O)Nc1ccc(CCN2CCc3ccccc3C2)cc1	74.1	–
COc1cc2c(cc1OC)CN(CCc1ccc(NC(=O)c3cc4ccccc4cn3)cc1)CC2	6.03	–
COc1cc2c(cc1OC)CN(CCc1ccc(NC(=O)c3cccc(Br)c3)cc1)CC2	22.9	–
COc1cc2c(cc1OC)CN(CCc1ccc(NC(=O)c3cccc4ccccc34)cc1)CC2	12.9	–
COc1cc2c(cc1OC)CN(CCc1ccc(NC(=O)c3ccc4ccccc4c3)cc1)CC2	7.24	–
COc1ccc(C(=O)Nc2ccc(CCN3CCc4cc(OC)c(OC)cc4C3)cc2)cc1OC	47.9	–
O=C(Nc1ccc(CCN2CCc3ccccc3C2)cc1)c1ccc([N+](=O)[O-])cc1	6.61	–
COc1cc2c(cc1OC)CN(CCc1ccc(NC(=O)c3ccc(N)cc3)cc1)CC2	263	–
COc1cc2c(cc1OC)CN(CCc1ccc(NC(=O)c3ccc(Br)cc3)cc1)CC2	11.5	–
COc1cc2c(cc1OC)CN(CCc1ccc(NC(=O)c3ccccc3NC(=O)c3ccccc3)cc1)CC2	3.98	–
COc1cc2c(cc1OC)CN(CCc1ccc(NC(=O)c3cc(OC)c(OC)cc3NC(=O)c3cnc4ccccc4c3)cc1)CC2	1.45	IC50 [2]: 0.0724 µM

Structure (SMILES)	IC50 [1] [µM]	other results
COc1cc2c(cc1OC)CN(CCc1ccc(NC(=O)c3ccccc3Br)cc1)CC2	21.9	–
COc1cc2c(cc1OC)CN(CCc1ccc(NC(=O)c3ccc4ncccc4c3)cc1)CC2	14.5	–
COc1cc2c(cc1OC)CN(CCc1ccc(NC(=O)c3cccnc3)cc1)CC2	44.7	–
Nc1ccc(C(=O)Nc2ccc(CCN3CCc4ccccc4C3)cc2)cc1	77.6	–
O=C(Nc1ccc(CCN2CCc3ccccc3C2)cc1)c1cnc2ccccc2c1	5.01	–
O=C(Nc1ccccc1C(=O)Nc1ccc(CCN2CCc3ccccc3C2)cc1)c1cnc2ccccc2c1	1	IC50 [3]: 0.832 µM; Activity [4]: Active; IC50 [5]: 0.676 µM
COc1cc2c(cc1OC)CN(CCc1ccc(NC(=O)c3ccccc3N)cc1)CC2	85.1	–
COc1cc2c(cc1OC)CN(CCc1ccc(NC(=O)c3ccccc3[N+](=O)[O-])cc1)CC2	110	–
COc1cc2c(cc1OC)CN(CCc1ccc(NC(=O)c3ccccc3NC(=O)c3cnc4ccccc4c3)cc1)CC2	5.01	–
COc1cc2c(cc1OC)CN(CCc1ccc(NC(=O)c3ccccc3)cc1)CC2	24.5	IC50 [2]: 4.79 µM
COc1cc2c(cc1OC)CN(CCc1ccc(NC(=O)C3Oc4ccccc4O3)cc1)CC2	15.1	IC50 [2]: 1.41 µM
COc1cc2c(cc1OC)CN(CCc1ccc(NC(=O)c3ccc([N+](=O)[O-])cc3)cc1)CC2	7.59	–
COc1ccc(CCN(C)CCCC(C#N)(c2ccc(OC)c(OC)c2)C(C)C)cc1OC (stereo unspecified)	525	–
COc1ccc([C@@H]2Sc3ccccc3N(CCN(C)C)C(=O)[C@@H]2OC(C)=O)cc1 [DILTIAZEM]	851	–
COC(=O)C1=C(C)NC(C)=C(C(=O)OCCN(C)Cc2ccccc2)C1c1cccc([N+](=O)[O-])c1 (stereo unspecified) [NICARDIPINE]	16.6	–
CC(=O)[C@H]1CC[C@H]2[C@@H]3CCC4=CC(=O)CC[C@]4(C)[C@H]3CC[C@]12C [PROGESTERONE]	126	–
COC(=O)[C@H]1[C@H]2C[C@@H]3c4[nH]c5cc(OC)ccc5c4CCN3C[C@H]2C[C@@H](OC(=O)c2cc(OC)c(OC)c(OC)c2)[C@@H]1OC [RESERPINE]	26.3	–
